Experimental data taken from ChEMBL document CHEMBL2073987, “The sulphonylurea glibenclamide inhibits multidrug resistance protein (MRP1) activity in human lung cancer cells” (Br J Pharmacol, 2001).

Assays:
[1] = target: Multidrug resistance-associated protein 1 (Homo sapiens, UniProt P33527); assay: TP_TRANSPORTER: inhibition of Calcein efflux (Calcein: 0.5 micro;M, Glibenclamide: 50-100 uM, increase intercellular calcein level by ca 4 fold ) in GLC4/Sb30 cells; format: functional, cell-based
[2] = target: ATP-binding cassette sub-family C member 2 (Rattus norvegicus, UniProt Q63120); assay: TP_TRANSPORTER: inhibition of Carboxy-2',7'-dichlorofluorescein efflux (Calcein: 0.5 micro;M, Glibenclamide, 50-100 uM, increase intercellular CF level by ~2 fold) in isolated rat hepatocytes; format: functional, cell-based, Hepatocyte
Sequence of ATP-binding cassette sub-family C member 2 (Q63120 whole entry): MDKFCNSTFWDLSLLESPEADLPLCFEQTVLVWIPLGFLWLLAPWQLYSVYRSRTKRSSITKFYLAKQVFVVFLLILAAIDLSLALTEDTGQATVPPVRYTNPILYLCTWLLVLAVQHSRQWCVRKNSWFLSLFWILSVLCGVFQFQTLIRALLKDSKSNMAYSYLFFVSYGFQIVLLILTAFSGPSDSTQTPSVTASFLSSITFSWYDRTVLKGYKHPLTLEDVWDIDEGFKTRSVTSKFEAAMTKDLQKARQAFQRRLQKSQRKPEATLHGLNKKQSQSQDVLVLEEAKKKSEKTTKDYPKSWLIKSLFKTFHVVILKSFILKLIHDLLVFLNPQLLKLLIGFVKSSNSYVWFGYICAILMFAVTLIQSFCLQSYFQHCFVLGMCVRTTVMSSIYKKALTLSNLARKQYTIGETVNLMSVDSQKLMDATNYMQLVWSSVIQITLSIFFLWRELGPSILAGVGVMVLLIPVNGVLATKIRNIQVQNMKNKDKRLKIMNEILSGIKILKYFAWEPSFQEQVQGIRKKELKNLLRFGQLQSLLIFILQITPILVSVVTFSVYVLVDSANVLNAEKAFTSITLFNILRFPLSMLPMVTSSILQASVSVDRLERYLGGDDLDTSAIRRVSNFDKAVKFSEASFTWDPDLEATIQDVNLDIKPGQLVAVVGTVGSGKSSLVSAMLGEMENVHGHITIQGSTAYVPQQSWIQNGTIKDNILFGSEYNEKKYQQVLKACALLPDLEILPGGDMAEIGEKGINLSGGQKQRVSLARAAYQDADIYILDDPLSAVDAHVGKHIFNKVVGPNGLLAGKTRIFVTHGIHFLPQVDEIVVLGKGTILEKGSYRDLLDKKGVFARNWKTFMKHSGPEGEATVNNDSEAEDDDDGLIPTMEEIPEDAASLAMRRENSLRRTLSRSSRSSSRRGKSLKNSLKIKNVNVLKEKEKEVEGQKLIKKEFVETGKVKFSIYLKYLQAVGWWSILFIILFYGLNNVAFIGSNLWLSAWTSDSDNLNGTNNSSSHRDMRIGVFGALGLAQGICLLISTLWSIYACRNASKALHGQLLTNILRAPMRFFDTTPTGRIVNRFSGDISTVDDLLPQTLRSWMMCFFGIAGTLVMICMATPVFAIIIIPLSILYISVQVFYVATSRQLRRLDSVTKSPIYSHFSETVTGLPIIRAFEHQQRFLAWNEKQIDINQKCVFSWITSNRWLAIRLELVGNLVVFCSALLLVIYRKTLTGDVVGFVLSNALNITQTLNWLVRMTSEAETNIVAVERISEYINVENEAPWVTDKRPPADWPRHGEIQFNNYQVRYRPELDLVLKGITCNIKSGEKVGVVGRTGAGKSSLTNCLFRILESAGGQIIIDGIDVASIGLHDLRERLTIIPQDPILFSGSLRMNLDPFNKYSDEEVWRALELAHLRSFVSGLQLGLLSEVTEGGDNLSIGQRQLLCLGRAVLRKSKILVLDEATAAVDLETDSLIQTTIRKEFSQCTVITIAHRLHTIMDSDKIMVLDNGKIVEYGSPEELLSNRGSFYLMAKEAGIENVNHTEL

Sequence of Multidrug resistance-associated protein 1 (P33527 whole entry): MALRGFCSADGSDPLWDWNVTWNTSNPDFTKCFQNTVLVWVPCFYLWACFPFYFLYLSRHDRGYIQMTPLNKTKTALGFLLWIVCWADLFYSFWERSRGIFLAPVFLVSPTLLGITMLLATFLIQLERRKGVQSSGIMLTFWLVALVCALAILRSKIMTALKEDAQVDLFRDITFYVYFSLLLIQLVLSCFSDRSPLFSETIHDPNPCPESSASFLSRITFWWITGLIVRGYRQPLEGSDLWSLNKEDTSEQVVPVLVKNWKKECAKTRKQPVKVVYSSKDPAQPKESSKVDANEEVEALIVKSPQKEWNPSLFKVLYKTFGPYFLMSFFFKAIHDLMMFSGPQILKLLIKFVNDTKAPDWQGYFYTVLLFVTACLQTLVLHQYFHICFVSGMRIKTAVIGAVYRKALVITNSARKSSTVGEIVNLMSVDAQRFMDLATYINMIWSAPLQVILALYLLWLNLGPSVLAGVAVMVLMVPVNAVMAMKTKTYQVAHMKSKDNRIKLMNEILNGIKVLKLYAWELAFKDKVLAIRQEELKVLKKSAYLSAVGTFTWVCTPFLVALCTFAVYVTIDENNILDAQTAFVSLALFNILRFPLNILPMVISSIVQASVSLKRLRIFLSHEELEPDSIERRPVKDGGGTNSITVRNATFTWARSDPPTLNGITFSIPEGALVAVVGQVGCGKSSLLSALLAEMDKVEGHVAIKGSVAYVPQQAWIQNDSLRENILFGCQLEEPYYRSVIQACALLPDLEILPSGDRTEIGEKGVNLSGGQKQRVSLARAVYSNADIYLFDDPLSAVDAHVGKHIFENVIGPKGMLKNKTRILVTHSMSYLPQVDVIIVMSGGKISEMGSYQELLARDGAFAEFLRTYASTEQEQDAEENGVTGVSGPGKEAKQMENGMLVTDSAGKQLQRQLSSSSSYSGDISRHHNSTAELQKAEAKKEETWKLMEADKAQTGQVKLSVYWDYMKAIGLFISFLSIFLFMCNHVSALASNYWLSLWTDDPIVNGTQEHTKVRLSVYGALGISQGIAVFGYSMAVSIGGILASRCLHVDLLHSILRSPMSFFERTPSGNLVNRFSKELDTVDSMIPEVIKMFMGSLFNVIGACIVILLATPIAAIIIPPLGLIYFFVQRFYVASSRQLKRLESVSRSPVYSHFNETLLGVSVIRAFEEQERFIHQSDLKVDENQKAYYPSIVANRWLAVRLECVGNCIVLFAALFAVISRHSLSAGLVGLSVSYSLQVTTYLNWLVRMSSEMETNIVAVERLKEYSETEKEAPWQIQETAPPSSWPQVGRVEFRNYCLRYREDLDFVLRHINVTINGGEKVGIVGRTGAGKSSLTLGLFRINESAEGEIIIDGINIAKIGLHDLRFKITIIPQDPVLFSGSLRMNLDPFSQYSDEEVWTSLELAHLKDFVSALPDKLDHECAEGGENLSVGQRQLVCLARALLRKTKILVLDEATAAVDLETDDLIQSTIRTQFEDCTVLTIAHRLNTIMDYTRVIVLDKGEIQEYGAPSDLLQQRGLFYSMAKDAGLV

For `COc1ccc(Cl)cc1C(=O)NCCc1ccc(S(=O)(=O)NC(=O)NC2CCCCC2)cc1` [GLYBURIDE], the Activity [1] was “inhibitor [+]” and the Activity [2] was “inhibitor [+]”.
